Assay results as given in PMC11239830, “Synthetic macrolides overcoming MLSBK-resistant pathogens” (Cell Discovery, 2024).
Converted amounts (≈) assume the structure as drawn. Like-named read-outs stand apart in the source and are kept apart here.

Columns and labels:
Experiment in all cases: MIC, broth microdilution
S. pneumoniae = assay type: cell-based, Streptococcus pneumoniae
Method: (§1) MICs were determined by the microdilution method according to the Clinical and Laboratory Standards Institute guidelines. […] Finally, the 96-well plates were incubated at 37 °C for 16–20 h to observe and record the results. […] The assay for MICs was replicated at least three times.

S. pyogenes = assay type: cell-based, Streptococcus pyogenes
Method: as §1

S. aureus = assay type: cell-based, Staphylococcus aureus
Method: as §1

H. influenzae = assay type: cell-based, Haemophilus influenzae
Method: as §1

[1] = Streptococcus pneumoniae, ATCC49619, S. pneumoniae ATCC49619, Ery-S, read-out: MIC
[2] = Streptococcus pneumoniae, S. pneumoniae 07P390, c-ermB, read-out: MIC
[3] = Streptococcus pneumoniae, S. pneumoniae PU09, mef, read-out: MIC
[4] = Streptococcus pyogenes, S. pyogenes 12-206, c-ermTR, read-out: MIC
[5] = Staphylococcus aureus, S. aureus 15B196, c-ermB, read-out: MIC
[6] = Staphylococcus aureus, S. aureus PU32, i-ermA, read-out: MIC
[7] = Haemophilus influenzae, ATCC49247, H. influenzae ATCC49247, Azi-S, read-out: MIC
[8] = Streptococcus pyogenes, S. pyogenes 01-968, i-ermTR (Table S5), read-out: MIC
[9] = Streptococcus pyogenes, S. pyogenes 12-206, c-ermB (Table S5), read-out: MIC

SMILES	MIC (S. pneumoniae; [1]) [µg/mL]	MIC (S. pneumoniae; [2]) [µg/mL]	MIC (S. pneumoniae; [3]) [µg/mL]	MIC (S. pyogenes; [4]) [µg/mL]	MIC (S. aureus; [5]) [µg/mL]	MIC (S. aureus; [6]) [µg/mL]	MIC (H. influenzae; [7]) [µg/mL]	MIC (S. pneumoniae; S. pneumoniae 07P390, c-ermB) [µg/mL]	MIC (S. pneumoniae; S. pneumoniae ATCC49619, Ery-S) [µg/mL]	MIC (S. pneumoniae; S. pneumoniae PU09, mef) [µg/mL]	MIC (S. pyogenes; S. pyogenes 12-206, c-ermTR) [µg/mL]	MIC (S. aureus; S. aureus 15B196, c-ermB) [µg/mL]	MIC (S. aureus; S. aureus PU32, i-ermA) [µg/mL]	MIC (H. influenzae; H. influenzae ATCC49247, Azi-S) [µg/mL]	other results
CCC1OC(=O)C(C)C(OC(=O)NCCCCCCCc2ccc3c(=O)c(C(N)=O)cn(C4CC4)c3c2)C(C)C(OC2OC(C)CC(N(C)C)C2O)C(C)(OC)CC(C)C(=NOC)C(C)C2OC(=O)OC12C (stereo not shown) [61d]	0.12 (≈ 0.119 µM)	16 (≈ 15.8 µM)	1 (≈ 0.988 µM)	16 (≈ 15.8 µM)	> 256	64 (≈ 63.2 µM)	> 256	–	–	–	–	–	–	–	–
CC[C@H]1OC(=O)[C@H](C)[C@@H](OC(=O)NCCOCCC#Cc2ccc3c(=O)c(C(=O)O)cn(C4CC4)c3c2)[C@H](C)[C@@H](O[C@@H]2O[C@H](C)C[C@H](N(C)C)[C@H]2O)[C@](C)(OC)C[C@@H](C)C(=NOC)[C@H](C)[C@H]2OC(=O)O[C@@]21C [70c]	–	–	–	–	–	–	–	0.25 (≈ 0.247 µM)	≤ 0.008	0.06 (≈ 0.0593 µM)	2 (≈ 1.98 µM)	128 (≈ 127 µM)	4 (≈ 3.96 µM)	32 (≈ 31.6 µM)	–
CC[C@H]1OC(=O)[C@H](C)[C@@H](OC(=O)NCCCCCc2ccc3c(c2)c(=O)c(C(N)=O)cn3C2CC2)[C@H](C)[C@@H](O[C@@H]2O[C@H](C)C[C@H](N(C)C)[C@H]2O)[C@](C)(OC)C[C@@H](C)C(=NOC)[C@H](C)[C@H]2OC(=O)O[C@@]21C [59b]	–	–	–	–	–	–	–	64 (≈ 65 µM)	0.25 (≈ 0.254 µM)	1 (≈ 1.02 µM)	64 (≈ 65 µM)	> 256	128 (≈ 130 µM)	> 256	–
CC[C@H]1OC(=O)[C@H](C)[C@@H](OC(=O)NCCCCCCC#Cc2ccc3c(=O)c(C(=O)O)cn(C4CC4)c3c2)[C@H](C)[C@@H](O[C@@H]2O[C@H](C)C[C@H](N(C)C)[C@H]2O)[C@](C)(OC)C[C@@H](C)C(=O)[C@H](C)[C@H]2NC(=O)O[C@@]21C [88c]	≤ 0.008	–	≤ 0.008	0.5 (≈ 0.503 µM)	8 (≈ 8.05 µM)	2 (≈ 2.01 µM)	–	–	–	–	1 (≈ 1.01 µM)	4 (≈ 4.03 µM)	1 (≈ 1.01 µM)	–	–
CC[C@H]1OC(=O)[C@H](C)[C@@H](O[C@H]2C[C@@](C)(OC)[C@@H](O)[C@H](C)O2)[C@H](C)[C@@H](O[C@@H]2O[C@H](C)C[C@H](N(C)C)[C@H]2O)[C@](C)(O)C[C@@H](C)CN(C)[C@H](C)[C@@H](O)[C@]1(C)O [azithromycin, reference compound]	0.25 (≈ 0.334 µM)	–	8 (≈ 10.7 µM)	> 256	–	–	2 (≈ 2.67 µM)	–	–	–	–	–	–	–	MIC (S. pneumoniae; Streptococcus pneumoniae, S. pneumoniae 07P390, c-ermB): > 256 µg/mL; MIC (S. aureus; Staphylococcus aureus, S. aureus 15B196, c-ermB): > 256 µg/mL; MIC (S. aureus; Staphylococcus aureus, S. aureus PU32, i-ermA): > 256 µg/mL
CCC1OC(=O)C(C)C(OC(=O)NCCCCCCCc2ccc3c(c2)c(=O)c(C(=O)O)cn3C2CC2)C(C)C(OC2OC(C)CC(N(C)C)C2O)C(C)(OC)CC(C)C(=NOC)C(C)C2OC(=O)OC12C (stereo not shown) [61a]	0.12 (≈ 0.118 µM)	64 (≈ 63.2 µM)	0.5 (≈ 0.493 µM)	32 (≈ 31.6 µM)	256 (≈ 253 µM)	8 (≈ 7.9 µM)	> 256	–	–	–	–	–	–	–	–
CCC1OC(=O)C(C)C(OC(=O)NCCCCCC#Cc2ccc3c(c2)c(=O)c(C(=O)O)cn3C2CC2)C(C)C(OC2OC(C)CC(N(C)C)C2O)C(C)(OC)CC(C)C(=NOC)C(C)C2OC(=O)OC12C (stereo not shown) [57a]	0.25 (≈ 0.248 µM)	64 (≈ 63.4 µM)	1 (≈ 0.991 µM)	32 (≈ 31.7 µM)	128 (≈ 127 µM)	16 (≈ 15.9 µM)	> 256	–	–	–	–	–	–	–	–
CC[C@H]1OC(=O)[C@H](C)[C@@H](OC(=O)NCCCCCC#Cc2ccc3c(=O)c(C(=O)O)cn(C4CC4)c3c2)[C@H](C)[C@@H](O[C@@H]2O[C@H](C)C[C@H](N(C)C)[C@H]2O)[C@](C)(OC)C[C@@H](C)C(=O)[C@H](C)[C@H]2NC(=O)O[C@@]21C [87c]	≤ 0.008	0.06 (≈ 0.0613 µM)	0.03 (≈ 0.0306 µM)	1 (≈ 1.02 µM)	64 (≈ 65.4 µM)	1 (≈ 1.02 µM)	8 (≈ 8.17 µM)	–	–	–	–	–	–	–	–
CC[C@H]1OC(=O)[C@H](C)[C@@H](OC(=O)NCCCCCCCCc2ccc3c(c2)c(=O)c(C(N)=O)cn3C2CC2)[C@H](C)[C@@H](O[C@@H]2O[C@H](C)C[C@H](N(C)C)[C@H]2O)[C@](C)(OC)C[C@@H](C)C(=NOC)[C@H](C)[C@H]2OC(=O)O[C@@]21C [62b]	–	–	–	–	–	–	–	32 (≈ 31.2 µM)	0.5 (≈ 0.487 µM)	4 (≈ 3.9 µM)	16 (≈ 15.6 µM)	> 256	128 (≈ 125 µM)	> 256	–
CC[C@H]1OC(=O)[C@H](C)[C@@H](OC(=O)NCCCCCCC#Cc2ccc3c(=O)c4c(O)cc(O)cc4oc3c2)[C@H](C)[C@@H](O[C@@H]2O[C@H](C)C[C@H](N(C)C)[C@H]2O)[C@](C)(OC)C[C@@H](C)C(=O)[C@H](C)[C@H]2NC(=O)O[C@@]21C [88m]	4 (≈ 4.03 µM)	16 (≈ 16.1 µM)	1 (≈ 1.01 µM)	32 (≈ 32.3 µM)	–	–	16 (≈ 16.1 µM)	–	–	–	–	–	–	–	MIC (S. pyogenes; [8]): 16 µg/mL (≈ 16.1 µM); MIC (S. pyogenes; [9]): 32 µg/mL (≈ 32.3 µM)
CC[C@H]1OC(=O)[C@H](C)[C@@H](OC(=O)NCCCCC#Cc2ccc3c(c2)c(=O)c(C(=O)O)cn3C2CC2)[C@H](C)[C@@H](O[C@@H]2O[C@H](C)C[C@H](N(C)C)[C@H]2O)[C@](C)(O)C[C@@H](C)CN(C)[C@H](C)[C@H]2OC(=O)O[C@@]21C [109a]	–	–	–	–	–	–	–	256 (≈ 265 µM)	1 (≈ 1.03 µM)	2 (≈ 2.07 µM)	128 (≈ 132 µM)	256 (≈ 265 µM)	32 (≈ 33.1 µM)	32 (≈ 33.1 µM)	–
CC[C@H]1OC(=O)[C@H](C)[C@@H](OC(=O)NCCCCCCC#Cc2ccc3c(=O)c(C(=O)O)cn(C4CC4)c3c2)[C@H](C)[C@@H](O[C@@H]2O[C@H](C)C[C@H](N(C)C)[C@H]2O)[C@](C)(OC)C[C@@H](C)C(=NOC)[C@H](C)[C@H]2OC(=O)O[C@@]21C [58c]	–	–	–	–	–	–	–	1 (≈ 0.977 µM)	0.25 (≈ 0.244 µM)	0.25 (≈ 0.244 µM)	2 (≈ 1.95 µM)	64 (≈ 62.5 µM)	8 (≈ 7.82 µM)	32 (≈ 31.3 µM)	–
CCC1OC(=O)C(C)C(OC(=O)NCCOCCCC#Cc2ccc3c(=O)c(C(=O)O)cn(C4CC4)c3c2)C(C)C(OC2OC(C)CC(N(C)C)C2O)C(C)(OC)CC(C)C(=NOC)C(C)C2OC(=O)OC12C (stereo not shown) [71c]	≤ 0.008	0.12 (≈ 0.117 µM)	≤ 0.008	2 (≈ 1.95 µM)	256 (≈ 250 µM)	4 (≈ 3.9 µM)	32 (≈ 31.2 µM)	–	–	–	–	–	–	–	–
CC[C@H]1OC(=O)[C@H](C)[C@@H](OC(=O)NCCCCCC#Cc2ccc3c(=O)c(C(=O)O)cn(C4CC4)c3c2)[C@H](C)[C@@H](O[C@@H]2O[C@H](C)C[C@H](N(C)C)[C@H]2O)[C@](C)(OC)C[C@@H](C)C(=O)[C@H](C)[C@H]2OC(=O)O[C@@]21C [79c]	0.016 (≈ 0.0163 µM)	0.12 (≈ 0.122 µM)	0.06 (≈ 0.0612 µM)	2 (≈ 2.04 µM)	64 (≈ 65.3 µM)	4 (≈ 4.08 µM)	16 (≈ 16.3 µM)	–	–	–	–	–	–	–	–
CC[C@H]1OC(=O)[C@H](C)[C@@H](OC(=O)NCCCCCCCCCc2ccc3c(c2)c(=O)c(C(N)=O)cn3C2CC2)[C@H](C)[C@@H](O[C@@H]2O[C@H](C)C[C@H](N(C)C)[C@H]2O)[C@](C)(OC)C[C@@H](C)C(=NOC)[C@H](C)[C@H]2OC(=O)O[C@@]21C [63b]	–	–	–	–	–	–	–	16 (≈ 15.4 µM)	2 (≈ 1.92 µM)	4 (≈ 3.85 µM)	16 (≈ 15.4 µM)	> 256	64 (≈ 61.5 µM)	> 256	–
CC[C@H]1OC(=O)[C@H](C)[C@@H](OC(=O)NCCCCCC#Cc2ccc3c(=O)c(C(=O)NO)cn(C4CC4)c3c2)[C@H](C)[C@@H](O[C@@H]2O[C@H](C)C[C@H](N(C)C)[C@H]2O)[C@](C)(OC)C[C@@H](C)C(=NOC)[C@H](C)[C@H]2OC(=O)O[C@@]21C [57e]	–	–	–	–	–	–	–	2 (≈ 1.95 µM)	0.016 (≈ 0.0156 µM)	0.5 (≈ 0.488 µM)	128 (≈ 125 µM)	128 (≈ 125 µM)	16 (≈ 15.6 µM)	32 (≈ 31.2 µM)	–
CC[C@H]1OC(=O)[C@H](C)[C@@H](OC(=O)NCCCCCCC#Cc2ccc3c(=O)c(C(=O)O)cn(C)c3c2)[C@H](C)[C@@H](O[C@@H]2O[C@H](C)C[C@H](N(C)C)[C@H]2O)[C@](C)(OC)C[C@@H](C)NC(=O)[C@H](C)[C@@H](O)[C@]1(C)O [126g]	0.06 (≈ 0.0627 µM)	2 (≈ 2.09 µM)	0.12 (≈ 0.125 µM)	2 (≈ 2.09 µM)	16 (≈ 16.7 µM)	2 (≈ 2.09 µM)	4 (≈ 4.18 µM)	–	–	–	–	–	–	–	–
CC[C@H]1OC(=O)[C@H](C)[C@@H](OC(=O)NCCCCCCC#Cc2ccc3c(=O)[nH]cnc3c2)[C@H](C)[C@@H](O[C@@H]2O[C@H](C)C[C@H](N(C)C)[C@H]2O)[C@](C)(OC)C[C@@H](C)C(=O)[C@H](C)[C@H]2NC(=O)O[C@@]21C [88k]	–	–	–	–	–	–	–	128 (≈ 141 µM)	0.06 (≈ 0.0659 µM)	0.5 (≈ 0.549 µM)	–	–	–	64 (≈ 70.3 µM)	MIC (S. pyogenes; S. pyogenes 01-968, i-ermTR (Table S5)): 1 µg/mL (≈ 1.1 µM); MIC (S. pyogenes; S. pyogenes 12-206, c-ermB (Table S5)): 32 µg/mL (≈ 35.2 µM)
CC[C@H]1OC(=O)[C@H](C)[C@@H](OC(=O)NCCCCCCC#Cc2ccc3c(=O)n(CC(=O)O)cnc3c2)[C@H](C)[C@@H](O[C@@H]2O[C@H](C)C[C@H](N(C)C)[C@H]2O)[C@](C)(OC)C[C@@H](C)C(=O)[C@H](C)[C@H]2NC(=O)O[C@@]21C [88l]	0.25 (≈ 0.258 µM)	256 (≈ 264 µM)	0.25 (≈ 0.258 µM)	256 (≈ 264 µM)	–	–	256 (≈ 264 µM)	–	–	–	–	–	–	–	MIC (S. pyogenes; [8]): 8 µg/mL (≈ 8.26 µM); MIC (S. pyogenes; [9]): 256 µg/mL (≈ 264 µM)
